Assay results from PubChem BioAssay (NCI).
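The concentration for 50% growth inhibition is given as GI50. TGI marks complete inhibition of growth.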

Assays:
Experiment in all cases: NCI tumour cell line growth inhibition, 384-well format
786-0 renal = system: 786-0 renal
A498 renal = system: A498 renal
A549 NSCLC = system: A549 NSCLC
ACHN renal = system: ACHN renal
BT-549 breast = system: BT-549 breast
CAKI-1 renal = system: CAKI-1 renal
CCRF-CEM leukemia = system: CCRF-CEM leukemia
COLO 205 colon = system: COLO 205 colon
DU-145 prostate = system: DU-145 prostate
EKVX NSCLC = system: EKVX NSCLC
HCC-2998 colon = system: HCC-2998 colon
HCT-15 colon = system: HCT-15 colon
HL-60(TB) leukemia = system: HL-60(TB) leukemia
HOP-62 NSCLC = system: HOP-62 NSCLC
HOP-92 NSCLC = system: HOP-92 NSCLC
HS 578T breast = system: HS 578T breast
HT29 colon = system: HT29 colon
IGROV1 ovarian = system: IGROV1 ovarian
K-562 leukemia = system: K-562 leukemia
KM12 colon = system: KM12 colon
LOX IMVI melanoma = system: LOX IMVI melanoma
M14 melanoma = system: M14 melanoma
MALME-3M melanoma = system: MALME-3M melanoma
MCF7 breast = system: MCF7 breast
MDA-MB-231 breast = system: MDA-MB-231 breast
MDA-MB-435 melanoma = system: MDA-MB-435 melanoma
MDA-MB-468 breast = system: MDA-MB-468 breast
MOLT-4 leukemia = system: MOLT-4 leukemia
NCI-H226 lung = system: NCI-H226 lung
NCI-H23 lung = system: NCI-H23 lung
NCI-H322M lung = system: NCI-H322M lung
NCI-H460 NSCLC = system: NCI-H460 NSCLC
NCI-H522 lung = system: NCI-H522 lung
NCI/ADR-RES ovarian = system: NCI/ADR-RES ovarian
OVCAR-3 ovarian = system: OVCAR-3 ovarian
OVCAR-4 ovarian = system: OVCAR-4 ovarian
OVCAR-5 ovarian = system: OVCAR-5 ovarian
OVCAR-8 ovarian = system: OVCAR-8 ovarian
PC-3 prostate = system: PC-3 prostate
RPMI-8226 leukemia = system: RPMI-8226 leukemia
RXF 393 renal = system: RXF 393 renal
SF-268 CNS = system: SF-268 CNS
SF-295 CNS = system: SF-295 CNS
SF-539 CNS = system: SF-539 CNS
SK-MEL-28 melanoma = system: SK-MEL-28 melanoma
SK-MEL-5 melanoma = system: SK-MEL-5 melanoma
SK-OV-3 ovarian = system: SK-OV-3 ovarian
SN12C renal = system: SN12C renal
SNB-19 CNS = system: SNB-19 CNS
SNB-75 CNS = system: SNB-75 CNS
SR leukemia = system: SR leukemia
SW-620 colon = system: SW-620 colon
T-47D breast = system: T-47D breast
TK-10 renal = system: TK-10 renal
UACC-257 melanoma = system: UACC-257 melanoma
UACC-62 melanoma = system: UACC-62 melanoma
UO-31 renal = system: UO-31 renal

## Cc1cc(-c2ccc(C3C(C#N)=C(N)Oc4c3c(=O)oc3ccccc43)cc2)cnc1F (centres undefined)
786-0 renal
  GI50: 43.2 µM
  TGI: > 100 µM
A498 renal
  GI50: 31.3 µM
  TGI: > 100 µM
A549 NSCLC
  GI50: 54.5 µM
  TGI: > 100 µM
ACHN renal
  GI50: 42.6 µM
  TGI: > 100 µM
BT-549 breast
  GI50: 27.9 µM
  TGI: > 100 µM
CAKI-1 renal
  GI50: 43.6 µM
  TGI: > 100 µM
CCRF-CEM leukemia
  GI50: 17.5 µM
  TGI: 33.7 µM
COLO 205 colon
  GI50: 64.6 µM
  TGI: > 100 µM
DU-145 prostate
  GI50: 39.3 µM
  TGI: > 100 µM
EKVX NSCLC
  GI50: 43.7 µM
  TGI: > 100 µM
HCC-2998 colon
  GI50: 29.7 µM
  TGI: 80.3 µM
HCT-15 colon
  GI50: 18.9 µM
  TGI: 39.3 µM
HL-60(TB) leukemia
  GI50: 24.7 µM
  TGI: 44.9 µM
HOP-62 NSCLC
  GI50: 34.7 µM
  TGI: > 100 µM
HOP-92 NSCLC
  GI50: 13.9 µM
  TGI: 39.7 µM
HS 578T breast
  GI50: 29.1 µM
  TGI: 79.9 µM
HT29 colon
  GI50: 25.1 µM
  TGI: 65 µM
IGROV1 ovarian
  GI50: 42.5 µM
  TGI: > 100 µM
K-562 leukemia
  GI50: 33.9 µM
  TGI: > 100 µM
KM12 colon
  GI50: > 100 µM
  TGI: > 100 µM
LOX IMVI melanoma
  GI50: 21.9 µM
  TGI: 45.4 µM
M14 melanoma
  GI50: 90.2 µM
  TGI: > 100 µM
MALME-3M melanoma
  GI50: 47.7 µM
  TGI: > 100 µM
MCF7 breast
  GI50: 38 µM
  TGI: > 100 µM
MDA-MB-231 breast
  GI50: 39.7 µM
  TGI: > 100 µM
MDA-MB-435 melanoma
  GI50: 89 µM
  TGI: > 100 µM
MDA-MB-468 breast
  GI50: 24 µM
  TGI: 49.2 µM
MOLT-4 leukemia
  GI50: 15 µM
  TGI: 28.4 µM
NCI-H226 lung
  GI50: 18.4 µM
  TGI: 59.3 µM
NCI-H23 lung
  GI50: 29.6 µM
  TGI: > 100 µM
NCI-H322M lung
  GI50: 25.4 µM
  TGI: 67 µM
NCI-H460 NSCLC
  GI50: 37.1 µM
  TGI: > 100 µM
NCI-H522 lung
  GI50: 17.5 µM
  TGI: 35.4 µM
NCI/ADR-RES ovarian
  GI50: 40 µM
  TGI: > 100 µM
OVCAR-3 ovarian
  GI50: 26.7 µM
  TGI: 57.1 µM
OVCAR-4 ovarian
  GI50: 33.9 µM
  TGI: > 100 µM
OVCAR-5 ovarian
  GI50: 37.4 µM
  TGI: > 100 µM
OVCAR-8 ovarian
  GI50: 38.5 µM
  TGI: > 100 µM
PC-3 prostate
  GI50: 53.1 µM
  TGI: > 100 µM
RPMI-8226 leukemia
  GI50: 14 µM
  TGI: 33.5 µM
RXF 393 renal
  GI50: 17.4 µM
  TGI: 32.2 µM
SF-268 CNS
  GI50: 50.1 µM
  TGI: > 100 µM
SF-295 CNS
  GI50: 46.9 µM
  TGI: > 100 µM
SF-539 CNS
  GI50: 24.8 µM
  TGI: 55.6 µM
SK-MEL-28 melanoma
  GI50: > 100 µM
  TGI: > 100 µM
SK-MEL-5 melanoma
  GI50: 29.8 µM
  TGI: 78.1 µM
SK-OV-3 ovarian
  GI50: 45.9 µM
  TGI: > 100 µM
SN12C renal
  GI50: 47.7 µM
  TGI: > 100 µM
SNB-19 CNS
  GI50: 62.9 µM
  TGI: > 100 µM
SNB-75 CNS
  GI50: 40.9 µM
  TGI: > 100 µM
SR leukemia
  GI50: 17.1 µM
  TGI: 32.2 µM
SW-620 colon
  GI50: 58.3 µM
  TGI: > 100 µM
T-47D breast
  GI50: 46.4 µM
  TGI: > 100 µM
TK-10 renal
  GI50: 30.3 µM
  TGI: 82.1 µM
UACC-257 melanoma
  GI50: 58.1 µM
  TGI: > 100 µM
UACC-62 melanoma
  GI50: 40.1 µM
  TGI: > 100 µM
UO-31 renal
  GI50: 30.1 µM
  TGI: > 100 µM
